According to a melting point compilation (Tetko et al.; mined from patent text by program, amines drawn as free bases though some values may be those of a salt):

Row | melting point [°C] | SMILES
1 | 136 to 137 | O=C1CCC(c2ccc(CCCCN3CCN(c4ccc(F)cc4)CC3)cc2)N1 (stereo not drawn)
2 | 182 to 183 | N#Cc1cc(NC(=O)c2ccn(-c3ccc(F)cc3)c2)ccc1N1CCC(N2CCOCC2)CC1
3 | 175 to 177 | COc1ccc(C(=O)c2ccc(OCc3nc(-c4ccccc4)oc3C)cc2)c(OC(C)(C)C(=O)O)c1
4 | 128 to 134 | CCc1c(CCC(=O)O)c[nH]c1C=O
5 | 118 to 120 | N#Cc1cnc2cc(-c3ccc(CN4CCOCC4)o3)ccc2c1Nc1ccc(Cl)cc1Cl
6 | 250 to 255 | O=C1Nc2cc(Cl)ccc2Oc2ccccc21
7 | 119 to 120 | COC(=O)c1nc(Br)c(F)c(N)c1Cl
8 | 211 to 212 | Cc1cc(C)c(S(=O)(=O)NC(COc2ccnc3ccccc23)C(F)(F)F)c(C)c1 (stereo not drawn)
9 | 178 to 180 | CC1=C(c2ccncc2)SC(c2ccco2)C(=O)N1 (stereo not drawn)
10 | 198 to 204 | CS(=O)(=O)c1ccc(C2=NN(S(=O)(=O)c3ccc(I)cc3)CCC2)cc1
11 | 234 | O=C(Nc1cc(C2CC2)n[nH]1)c1ccccc1
12 | 236 to 238 | CN(C)c1nc2cc(N)ccn2n1
13 | 140 to 141 | COc1ccc2c(c1)C(C(=O)O)c1cccnc1CO2 (stereo not drawn)
14 | 109 | CCC1CC(=O)N(Cc2ccc(N)cc2)N=C1c1ccc(OC)c(OC2CCCC2)c1 (stereo not drawn)
15 | 254 to 255 | O=C1CCC2=C1C(c1cc(Br)cs1)C1=C(CCS1)N2 (stereo not drawn)
16 | 229 to 232 | COc1ccc(N2CCN(C)CC2)c2c1CC[C@H](NC(=O)c1ccc(N3CCOCC3)cc1)C2
17 | 129 to 130 | COC(=O)C(C#N)(CCCN(C)CCc1ccc(OC)c(OC)c1)c1ccc(OC)c(OC)c1 (stereo not drawn)
18 | 75 to 77 | COC(=O)c1cccc(NC(=O)C(C)CSC(C)=O)n1 (stereo not drawn)
19 | 164 to 165 | N#Cc1ccc2c(c1)C(=O)N1CCC[C@@H]1CO2
20 | 142 to 144 | O=S(=O)(Nc1ccc2c(OCc3ccc(Cl)cc3Cl)cccc2c1)C(F)(F)F
21 | 80 to 82 | CCOc1cc(C(CS(C)(=O)=O)N2C(=O)c3cccc(Cc4ccc[nH]4)c3C2=O)ccc1OC (stereo not drawn)
22 | 84 to 86 | CCNc1c(C)c(C)c2c(c1C)CC(C)(CN1CCC(c3ccccc3)CC1)O2 (stereo not drawn)
23 | > 280 | NNc1nc(Cl)nc2c(Cl)cc(Cl)cc12

Row | melting point [°C] | SMILES
24 | 160 | CCOC(=O)c1cccc(NC(=O)N2CCC(CNC[C@H](O)COc3cccc4[nH]c5ccccc5c34)CC2)c1
25 | 92 to 93 | CN(C)Cc1cccc(OCCCNc2nc(N=Cc3cccnc3)nn2C)c1
26 | 168 to 169 | COCCOCCCn1c(C=O)c(Br)c2c3c(c(-c4ccccc4Cl)cc21)C(=O)NC3=O
27 | 199 | O=c1[nH]cnc2c1CCN(Cc1ccccc1)C2
28 | 134 | CCOC(=O)C1=C(C(=O)OCC)C(c2cc(OC)c(OC)c(OC)c2)C(C(=O)OCC)=C(C)N1 (stereo not drawn)
29 | 80 to 85 | COc1ccc2nc(COc3ccc(CC4SC(=O)N(C(c5ccccc5)(c5ccccc5)c5ccccc5)C4=O)cc3)n(C)c2n1 (stereo not drawn)
30 | 215 to 216 | COc1cc(COc2nn(-c3ccccc3)cc2/C=C2\SC(=O)N(C)C2=O)ccc1OCc1nc(-c2ccco2)oc1C
31 | 117 to 118 | CCC(O)(CC)c1ccc(-c2cccc(OCc3ccc(CO)c(CO)c3)c2C)cc1
32 | 171 to 173 | CCNc1nc(N)nc2c1ncn2C1C=CC(CO)C1 (stereo not drawn)
33 | > 250 | Cc1cccc(C)c1-c1cccc2c1CC(CN)O2 (stereo not drawn)
34 | 134 to 135 | O=C(NCCO)c1ccc([N+](=O)[O-])cc1
35 | 134 to 135 | CCN(CC)C(=O)n1cnc(S(=O)(=O)c2ccccc2OCC(F)(F)F)n1
36 | 249 to 250 | CNC(=O)C1(Oc2ccc3c(c2)c(-c2cc4cccnc4[nH]2)cn3C)CCC1
37 | 136 to 138 | CC(CC(=O)c1ccc(Br)cc1)C(=O)N1CCCC1C(=O)O (stereo not drawn)
38 | 229 to 231 | NC(=O)c1cc2cccc(N(CC3CC3)S(=O)(=O)c3cccs3)c2[nH]1
39 | 110 to 112 | Cc1ccc(Cc2cnc(CCCSCc3cc(CN(C)C)ccn3)[nH]c2=O)cn1
40 | 117 to 118 | COC(=O)CCON1C(C)(C)CC(OC(=O)c2ccccc2C(=O)OC2CC(C)(C)N(OCCC(=O)OC)C(C)(C)C2)CC1(C)C
41 | 203 to 205 | CS(=O)(=O)Nc1ccc(F)c(C(=O)O)c1
42 | 90 to 91 | CCOC(C)O[C@H]1C(=O)N(C(=O)OC(C)(C)C)[C@H]1c1ccccc1 (stereo partly drawn)
43 | 107 to 109 | COc1ccc(-n2nc(CCC#N)cc2-c2ccc(Cl)cc2)cc1
44 | 100 to 109 | COc1cc(N2CCC(N3CCCN(C)CC3)CC2)ccc1Nc1ncc2ccc(-c3ccccc3N(C)S(C)(=O)=O)n2n1
45 | 157 to 158 | Nc1cc(Oc2ccc(Oc3cc(N)cc(C(F)(F)F)c3)cc2)cc(C(F)(F)F)c1

Continued, compound first:

Row | SMILES | melting point [°C]
46 | CCOC(=O)CC(NC(=O)C=CS(=O)c1ccccc1)C(=O)OCC (stereo not drawn) | 121 to 123
47 | O=C1c2cc(F)ccc2OC[C@H]2CCCN12 | 80 to 82
48 | COCCCC(=O)NNC(=O)N1Cc2ccccc2Oc2ccc(Cl)cc21 | 142 to 144
49 | Cn1ccnc1Sc1ccc(Nc2c(C#N)cnc3cc(-c4ccc(C(=O)N5CCOCC5)cc4)ccc23)cc1Cl | 98 to 101
50 | CC(C)C=CC1(C(F)(F)F)OCC(=O)Nc2ccc(Cl)cc21 (stereo not drawn) | 148 to 149
51 | CC(Cl)c1nc2ccccc2c(=O)o1 (stereo not drawn) | 90
52 | CC(=O)CN1CCc2c(c(=O)oc3ccccc23)C1 | 128 to 130
53 | O=C(c1ccc(Cl)cc1)C(Cn1cncn1)n1cncn1 (stereo not drawn) | 204
54 | CS(=O)(=O)CCNc1nccc(Oc2ccc(NC(=O)c3cc(F)cc(N4CCCCC4)c3)c3ccccc23)n1 | 102 to 104
55 | OCCOc1ccc(-c2nc(-c3ccccc3)nc(-c3ccccc3)n2)c(O)c1 | 195
56 | C=CCNc1nc(NCc2ccccc2)c2scc(C)c2n1 | 97 to 98
57 | CC(=O)N(C)c1ccc2c(c1)C(c1ccccc1F)=NCc1cnc(C)n1-2 | 217 to 223
58 | Cn1c(C(F)(F)F)cc(C#N)c1-c1ccc2ccccc2c1 | 134
59 | CCOC(=O)C1=C(CO)NC(C)=C(C(=O)OCCOCc2ccccc2)C1c1ccccc1[N+](=O)[O-] (stereo not drawn) | 96 to 97
60 | CC1(C(=O)O)CCCc2c(-c3ccc(Cl)cc3)noc2C1 (stereo not drawn) | 232 to 235
61 | CCCCCCCCC1(COc2ccc(N)cc2)CCc2c(C)c(OC(C)=O)c(C)c(C)c2O1 (stereo not drawn) | 112 to 114
62 | O=C1CCCc2nc3ccccc3c(NCc3cccc(C(F)(F)F)c3)c21 | 147 to 149
63 | CC(C)(C)c1cc(N(C(=O)CCC(=O)O)c2ccccc2)cc(C(C)(C)C)c1O | 205 to 208
64 | NS(=O)(=O)Oc1ccc(C(=O)c2ccc(OS(N)(=O)=O)cc2)cc1 | 182 to 185
65 | C[C@@H](n1cnc2cccc(F)c2c1=O)[C@](O)(Cn1cncn1)c1ccc(F)cc1F | 94 to 122
66 | CC12CC(=O)C3C(CCC4CC(O)CCC43C)C1CCC2C(=O)CBr (stereo not drawn) | 160 to 163
67 | O=C(O)C(S)=Cc1ccc(C(F)(F)F)o1 | 158
68 | C[C@@H](F)c1nc(N)nc(N[C@@H]2CCOc3ccccc32)n1 | 110 to 112
69 | O=C1N(Cc2c[nH]cn2)CCN1c1cccc(Cl)c1 | 201 to 203
70 | CCC(C)C(CO)NC(=O)CC(O)C(CC(C)C)NC(=O)C(Cc1cccs1)NC(=O)C(Cc1cccc2ccccc12)NC(=O)OCc1ccccc1 (mixture of isomers) | 160 to 162
71 | Cc1ccc(S(=O)(=O)NC(Cc2ccccc2)C(=O)Nc2c(C(C)C)cccc2C(C)C)cc1 (stereo not drawn) | 183 to 184
72 | Cc1cc(Oc2ccc(Cc3ccccc3)cc2)cc(C)c1N | 61 to 63

Row | SMILES | melting point [°C]
73 | N#CCOc1cccc(CCNS(=O)(=O)c2ccc(Cl)cc2)c1 | 92
74 | O=C(O)CCCCCCCNS(=O)(=O)c1ccc(F)cc1 | 97 to 98
75 | CCOC(=O)C1=C[C@H](O)[C@H](NC(C)=O)[C@@H](N=[N+]=[N-])C1 | 51 to 53
76 | O=C1NC(=O)c2c1c(-c1ccccc1Cl)cc1oc3cc(OCCCN4CCCC4)c(O)cc3c21 | 302 to 304
77 | O=C(O)c1cc(S(=O)(=O)N2CCSCC2)ccc1Br | 195 to 198
78 | CC1(C)[C@@H](C=C2CC2)[C@@H]1C(=O)O (relative stereo) | 85
79 | C#Cc1ccc(Br)c(C(F)(F)F)c1 | < 50
80 | CCNC(=O)C1=CSC(Cl)N1[Si](C)(C)C (stereo not drawn) | 101 to 103
81 | COC(=O)C(Cc1cc(OC)cc(OC)c1)c1ccc(O)cc1 (stereo not drawn) | 63 to 65
82 | CS(=O)(=O)c1ccc(-c2cc(C(=O)CCCO[N+](=O)[O-])nn2-c2ccc(Cl)cc2)cc1 | 131 to 132
83 | NC(=O)NS(=O)(=O)c1ccccc1Cl | 160 to 163
84 | CCN1CC(CCN(C)C)Oc2ncccc2C1=S (stereo not drawn) | 73
85 | O=C1CCC(C(=O)Nc2ccc(Cl)cc2C(=O)c2ccccc2Cl)O1 (stereo not drawn) | 170 to 173
86 | COc1ccc(Br)c2c1CN(Nc1ccncc1)CC2 | 172 to 173
87 | CCOC(=O)c1cnn2c1nc(OCC)c1cnc3c(cnn3CC)c12 | 167 to 168
88 | CCn1cc(C(=O)NCc2ccc(Cl)cc2)c(=O)c2cc(I)sc21 | 214 to 218
89 | CC(C)(C)OC(=O)N1CC(O)C(N2CCC(Cc3ccc(Cl)cc3)CC2)C1 (stereo not drawn) | 99 to 102
90 | Oc1cccc(Cc2ccc3ccccc3c2O)c1 | 100 to 101
91 | O=CCN1C=C(C(=O)O)Cc2cc(F)c(F)c(F)c21 | 220 to 222
92 | COc1cc2c(cc1OC)-c1ccc(OC)c(OC)c1C2=O | 208 to 209
93 | O=C1CNC(=O)N1Cc1ccc2c(c1)N(C1CCN(CCc3ccc(F)cc3)CC1)CC2 | 191 to 193
94 | COc1ccc(C(=CC#N)c2ccc3ccccc3c2)cc1OC | 121 to 123
95 | CSc1ccc(C=C2CCc3cc(OCCn4ccnc4)ccc3C2=O)cc1 | 161 to 162
96 | Nc1cccc(C(=O)Nc2ccc(NNC=O)cc2)c1 | 177 to 178
97 | NS(=O)(=O)C1=CCC(n2nc(C(F)(F)F)c3ccc4ccccc4c32)C=C1 (stereo not drawn) | 257 to 258
98 | CCCCn1c(=O)c2nn(S(=O)(=O)c3cc(Cl)c(Cl)s3)cc2n(CCCC)c1=O | 163 to 166
